Values after ≈ are worked out from the molar mass of the structure shown.
Columns and labels:
[1] = tested on: S. coelicolor strain with the neo reporter gene; test: neo reporter strain assay (kanamycin resistance under PopR-dependent promoter); format: cell-based, S. coelicolor M145; conditions: DNAgar, 10 μg/mL kanamycin, optical density at 48 hrs
M. smegmatis MC2155 = test: toxicity to M. smegmatis (growth suppression, MIC); format: cell-based; conditions: for suppression of growth of M. smegmatis: M. smegmatis MC2155
Procedure: To determine if the results in the S. coelicolor based assay had relevance to Mycobacteria, all fourteen compounds were tested for toxicity to M. smegmatis MC2155, a surrogate of M. tuberculosis. […] Three of these inhibitory compounds were trans-disubstituted β-lactones with unbranched alkyl substituents on both the α- and β-carbons (β-lactones 2-4). For these molecules, there was a positive correlation between the length of the alkyl group on the α-carbon and antibacterial activity. […] The compounds were subsequently shown to be inhibitors of ClpP in vitro. In Mycobacteria, ClpP inhibition is associated with killing. Previous reports of ClpP inhibition generally described suppression of virulence in pathogenic bacteria (S. aureus and L. monocytogenes).

M. tuberculosis H37Rv = test: toxicity to M. tuberculosis (growth inhibition, MIC); format: cell-based

Row | SMILES | growth of reporter strain on media supplemented with kanamycin [1] | suppression of growth of M. smegmatis (M. smegmatis MC2155) | inhibition of growth of M. tuberculosis H37Rv (M. tuberculosis H37Rv) | MIC (M. smegmatis MC2155; Mycolicibacterium smegmatis, MC2155, M. smegmatis) [µg/mL] | MIC (M. tuberculosis H37Rv; Mycobacterium tuberculosis, H37RV, M. tuberculosis) [µg/mL]
1 | C=CCCCCCCCC1C(=O)OC1CCC (stereo not drawn) [Compound 4] | enabled the reporter strain to grow on media supplemented with kanamycin | suppressed the growth of M. smegmatis | inhibited growth of M. tuberculosis H37Rv | – | –
2 | CCCCCC1C(=O)OC1CCC (stereo not drawn) [Compound 2] | enabled the reporter strain to grow on media supplemented with kanamycin | suppressed the growth of M. smegmatis | – | – | –
3 | CCCCCCCC1C(=O)OC1CCC (stereo not drawn) [Compound 3] | enabled the reporter strain to grow on media supplemented with kanamycin | suppressed the growth of M. smegmatis | – | – | –
4 | CCCC1OC(=O)C1Cc1ccccc1 (stereo not drawn) [Compound 7] | enabled the reporter strain to grow on media supplemented with kanamycin | suppressed the growth of M. smegmatis | inhibited growth of M. tuberculosis H37Rv | 10 (≈ 49 µM) | 28 (≈ 137 µM)

Source: patent US20160221977A1, “ANT[…]-LACTONES, AND METHODS OF IDENTIFICATION, MANUFACTURE AND USE” (priority 2014, published 2016)
